Target: T1, recombinant human NAE enzyme (Homo sapiens, UniProt Q8TBC4)
T1 construct: His (N); made in house; host or cells: Sf9 insect cells (baculovirus, Bac-to-Bac), purified on Ni-NTA
T1 sequence (Q8TBC4 1-463): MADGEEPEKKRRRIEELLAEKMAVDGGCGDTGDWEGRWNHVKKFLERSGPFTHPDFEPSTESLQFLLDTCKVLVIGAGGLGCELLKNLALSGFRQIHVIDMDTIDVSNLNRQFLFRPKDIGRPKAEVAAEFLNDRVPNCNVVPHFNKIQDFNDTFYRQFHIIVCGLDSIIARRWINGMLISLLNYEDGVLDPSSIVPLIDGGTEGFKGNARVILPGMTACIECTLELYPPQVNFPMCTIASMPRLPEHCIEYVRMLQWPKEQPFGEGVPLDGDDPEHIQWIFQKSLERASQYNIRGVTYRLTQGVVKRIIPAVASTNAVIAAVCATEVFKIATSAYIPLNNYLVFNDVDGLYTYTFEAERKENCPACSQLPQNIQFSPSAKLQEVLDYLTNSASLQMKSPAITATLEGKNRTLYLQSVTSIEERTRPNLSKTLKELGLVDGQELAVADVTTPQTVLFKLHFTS
T1 sequence (Q13564 1-534 partner): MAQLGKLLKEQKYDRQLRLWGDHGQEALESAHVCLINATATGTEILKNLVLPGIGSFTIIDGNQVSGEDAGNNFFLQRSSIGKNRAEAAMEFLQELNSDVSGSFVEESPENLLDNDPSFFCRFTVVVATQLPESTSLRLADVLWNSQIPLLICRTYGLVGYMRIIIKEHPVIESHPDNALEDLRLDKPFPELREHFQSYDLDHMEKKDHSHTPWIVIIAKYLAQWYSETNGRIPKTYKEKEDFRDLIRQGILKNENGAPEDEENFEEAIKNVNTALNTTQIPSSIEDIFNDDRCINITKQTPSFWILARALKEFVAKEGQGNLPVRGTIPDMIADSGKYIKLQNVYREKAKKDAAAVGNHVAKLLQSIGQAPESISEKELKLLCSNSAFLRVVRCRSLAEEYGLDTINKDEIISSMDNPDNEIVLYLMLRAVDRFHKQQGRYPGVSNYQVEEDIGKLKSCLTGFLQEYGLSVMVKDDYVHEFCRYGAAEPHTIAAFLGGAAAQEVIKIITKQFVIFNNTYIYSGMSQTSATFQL
Test: Nedd8-Activating Enzyme (NAE) HTRF Assay
Type: biochemical
Details: threshold statement: less than or equal to 100 nM; 20 μM ATP, 90 minutes at 24° C.
Procedure: Following manufacturer instructions, baculoviruses were generated with the Bac-to-Bac Expression System (Invitrogen) for the following proteins: untagged NAEα (APPBP1; NP_003896.1), N-terminally His-tagged NAEβ (UBE1C; NP_003959.3), untagged SAEα (SAE1; NP_005491.1), N-terminally His-tagged SAEβ (UBA2; NP_005490.1), N-terminally His-tagged murine UAE (UBE1X; NP_033483). NAEα/His-NAEβ and SAEα/His-SAEβ complexes were generated by co-infection of Sf9 cells, which were harvested after 48 hours. His-mUAE was generated by single infection of Sf9 cells and harvested after 72 hours. Expressed proteins were purified by affinity chromatography (Ni—NTA agarose, Qiagen) using standard buffers. Ubc12 (UBE2M; NP_003960.1), Ubc9 (UBE2I; NP_003336.1), Ubc2 (UBE2A; NP_003327.2) were subcloned into pGEX (Pharmacia) and expressed as N-terminally GST tagged fusion proteins in E. coli. Expressed proteins were purified by conventional affinity chromatography using standard buffers. Nedd8 (NP_006147), Sumo-1 (NP_003343) and Ubiquitin (with optimized codons) were subcloned into pFLAG-2 (Sigma) and expressed as N-terminally Flag tagged fusion proteins in E. coli. Expressed proteins were purified by conventional chromatography using standard buffers. Nedd8-Activating Enzyme (NAE) HTRF Assay. The NAE enzymatic reaction totaled 50 μL and contained 50 mM HEPES (pH 7.5), 0.05% BSA, 5 mM MgCl2, 20 μM ATP, 250 μM GSH, 0.01 μM Ubc12-GST, 0.075 μM Nedd8-Flag and 0.28 nM recombinant human NAE enzyme. The enzymatic reaction mixture, with and without compound inhibitor, was incubated at 24° C. for 90 minutes in a 384-well plate before termination with 25 μL of Stop/Detection buffer (0.1M HEPES pH 7.5, 0.05% Tween20, 20 mM EDTA, 410 mM KF, 0.53 nM Europium-Cryptate labeled monoclonal anti-FLAG M2 antibody (CisBio International) and 8.125 μg/mL PHYCOLINK goat anti-GST allophycocyanin (XL-APC) antibody (Prozyme)). After incubation for 3 hours at 24° C., quantification of the FRET was performed on the Analyst™ HT 96.384 (Molecular Devices).

Row | SMILES | IC50
1 | NS(=O)(=O)OC[C@@H]1C[C@@H](n2ccc3c(N[C@H]4CCOc5ccccc54)ncnc32)C[C@@H]1O [Compound I-12, ((1S,2S,4R)-4-{4-[(4S)-3,4-dihydro-2H-chromen-4-ylamino]-7H-pyrrolo[2,3-d]-pyrimidin-7-yl}-2-hydroxycyclopentyl)methyl sulfamate] | ≤ 100 nM
2 | NS(=O)(=O)OC[C@@H]1C[C@@H](n2ccc3c(NCc4c(F)cccc4F)ncnc32)C[C@@H]1O [Compound I-15, ((1S,2S,4R)-4-{4-[(2,6-dif1uorobenzyl)amino]-7H-pyrrolo[2,3-d]pyrimidin-7-yl}-2-hydroxycyclopentyl)methyl sulfamate] | ≤ 100 nM
3 | NS(=O)(=O)OC[C@@H]1C[C@@H](n2ccc3c(NCc4cc(Cl)cc(Cl)c4)ncnc32)C[C@@H]1O [Compound I-16, ((1S,2S,4R)-4-{4-[(3,5-dichlorobenzyl)amino]-7H-pyrrolo[2,3-d]pyrimidin-7-yl}-2-hydroxycyclopentyl)methyl sulfamate] | ≤ 100 nM
4 | NS(=O)(=O)OC[C@@H]1C[C@@H](n2ccc3c(N[C@H]4CCc5ccccc54)ncnc32)[C@H](O)[C@@H]1O [Compound I-17, ((1S,2R,3S,4R)-4-{4-[(1S)-2,3-dihydro-1H-inden-1-ylamino]-7H-pyrrolo[2,3-d]-pyrimidin-7-yl}-2,3-dihydroxycyclopentyl)methyl sulfamate] | ≤ 100 nM
5 | Nc1ncnc2c1ccn2[C@@H]1C[C@@H](COS(N)(=O)=O)[C@@H](O)C1 [Compound I-18, [(1S,2S,4R)-4-(4-amino-7H-pyrrolo[2,3-d]pyrimidin-7-yl)-2-hydroxycyclopentyl]methyl sulfamate] | ≤ 100 nM
6 | NS(=O)(=O)OC[C@@H]1C[C@@H](n2ccc3c(NCc4ccc(Cl)cc4Cl)ncnc32)C[C@@H]1O [Compound I-19, ((1S,2S,4R)-4-{4-[(2,4-dichlorobenzyl)amino]-7H-pyrrolo[2,3-d]pyrimidin-7-yl}-2-hydroxycyclopentyl)methyl sulfamate] | ≤ 100 nM
7 | NS(=O)(=O)OC[C@@H]1C[C@@H](n2ccc3c(NCc4ccc(Cl)cc4)ncnc32)[C@H](O)[C@@H]1O [Compound I-22, ((1S,2R,3S,4R)-4-{4-[(4-chlorobenzyl)amino]-7H-pyrrolo[2,3-d]pyrimidin-7-yl)-2,3-dihydroxycyclopentyl)methyl sulfamate] | ≤ 100 nM
8 | NS(=O)(=O)OC[C@@H]1C[C@@H](n2cnc3c(NCc4ccc(Cl)cc4)ncnc32)C[C@@H]1O [Compound I-23, ((1S,2S,4R)-4-{6-[(4-chlorobenzyl)amino]-9H-purin-9-yl}-2-hydroxycyclopentyl)methyl sulfamate] | ≤ 100 nM
9 | NS(=O)(=O)OC[C@@H]1C[C@@H](n2ccc3c(NCc4ccc(Cl)c(Cl)c4)ncnc32)C[C@@H]1O [Compound I-24, ((1S,2S,4R)-4-{4-[(3,4-dichlorobenzyl)amino]-7H-pyrrolo[2,3-d]pyrimidin-7-yl}-2-hydroxycyclopentyl)methyl sulfamate] | ≤ 100 nM
10 | NS(=O)(=O)OC[C@@H]1C[C@@H](n2ccc3c(NCC4CC4)ncnc32)C[C@@H]1O [Compound I-25, ((1S,2S,4R)-4-{4-[(cyclopropylmethyl)amino]-7H-pyrrolo[2,3-d]pyrimidin-7-yl}-2-hydroxycyclopentyl)methyl sulfamate] | ≤ 100 nM

The next lines start with the values.

Row | IC50 | SMILES
11 | ≤ 100 nM | CC1(C)C[C@H](Nc2ncnc3c2ccn3[C@@H]2C[C@@H](COS(N)(=O)=O)[C@@H](O)C2)c2ccccc21 (single isomer, unassigned) [Compound I-14]
12 | ≤ 100 nM | CC1(C)C[C@@H](Nc2ncnc3c2ccn3[C@@H]2C[C@@H](COS(N)(=O)=O)[C@@H](O)C2)c2ccccc21 (single isomer, unassigned) [Compound I-21]
13 | ≤ 100 nM | NS(=O)(=O)OC1CC(n2ccc3c(N[C@H]4CCc5ccccc54)ncnc32)CC1O (stereo in doubt) [Compound I-78, (1R,2S,4S)-4-{4-[(1S)-2,3-dihydro-1H-inden-1-ylamino]-7H-pyrrolo[2,3-d]pyrimidin-7-yl}-2-hydroxycyclopentyl sulfamate]
14 | ≤ 100 nM | COC[C@H]1Cc2ccccc2C1Nc1ncnc2c1ccn2[C@@H]1C[C@@H](COS(N)(=O)=O)[C@@H](O)C1 (stereo in doubt) [Compound I-80, [(1S,2S,4R)-2-hydroxy-4-(4-{[(1S,2S)-2-(methoxymethyl)-2,3-dihydro-1H-inden-1-yl]amino}-7H-pyrrolo[2,3-d]pyrimidin-7-yl)cyclopentyl]methyl sulfamate]
15 | ≤ 100 nM | NS(=O)(=O)OC[C@@H]1C[C@@H](n2ccc3c(NCc4ccccc4Cl)ncnc32)C[C@@H]1O [Compound I-1, ((1S,2S,4R)-4-{4-[(2-chlorobenzyl)amino]-7H-pyrrolo[2,3-d]pyrimidin-7-yl}-2-hydroxycyclopentyl)methyl sulfamate]
16 | ≤ 100 nM | NS(=O)(=O)OC[C@@H]1C[C@@H](n2ccc3c(NCc4ccccc4OC(F)F)ncnc32)C[C@@H]1O [Compound I-2, [(1S,2S,4R)-4-(4-{[2-(difluoromethoxy)benzyl]amino}-7H-pyrrolo[2,3-d]-pyrimidin-7-yl)-2-hydroxycyclopentyl]methyl sulfamate]
17 | ≤ 100 nM | C[C@@H](c1ccccc1)N(C)c1ncnc2c1ccn2[C@@H]1C[C@@H](COS(N)(=O)=O)[C@@H](O)C1 [Compound I-3, [(1S,2S,4R)-2-hydroxy-4-(4-{methyl[(1S)-1-phenylethyl]amino}-7H-pyrrolo-[2,3-d]pyrimidin-7-yl)cyclopentyl]methyl sulfamate]
18 | ≤ 100 nM | C[C@H](Nc1ncnc2c1ccn2[C@@H]1C[C@@H](COS(N)(=O)=O)[C@@H](O)C1)c1ccccc1 [Compound I-4, [(1S,2S,4R)-2-hydroxy-4-(4-{[(1S)-1-phenylethyl]amino}-7H-pyrrolo[2,3-d]-pyrimidin-7-yl)cyclopentyl]methyl sulfamate]
19 | ≤ 100 nM | CN(c1ncnc2c1ccn2[C@@H]1C[C@@H](COS(N)(=O)=O)[C@@H](O)C1)[C@H]1CCc2ccccc21 [Compound I-6, ((1S,2S,4R)-4-{4-[(1S)-2,3-dihydro-1H-inden-1-yl(methyl)amino]-7H-pyrrolo-[2,3-d]pyrimidin-7-yl}-2-hydroxycyclopentyl)methyl sulfamate]
20 | ≤ 100 nM | C[C@@H](Nc1ncnc2c1ccn2[C@@H]1C[C@@H](COS(N)(=O)=O)[C@@H](O)C1)c1ccccc1 [Compound I-7, [(1S,2S,4R)-2-hydroxy-4-(4-{[(1R)-1-phenylethyl]amino}-7H-pyrrolo[2,3-d]-pyrimidin-7-yl)cyclopentyl]methyl sulfamate]
21 | ≤ 100 nM | NS(=O)(=O)OC[C@@H]1C[C@@H](n2ccc3c(NCc4ccc(C(F)(F)F)cc4)ncnc32)C[C@@H]1O [Compound I-8, [(1S,2S,4R)-2-hydroxy-4-(4-{[4-(trifluoromethyl)benzyl]amino}-7H-pyrrolo-[2,3-d]pyrimidin-7-yl)cyclopentyl]methyl sulfamate]
